The values that follow come from article PMC10112232, “Comparison of Toxicities among Different Bumped Kinase Inhibitor Analogs for Treatment of Cryptosporidiosis” (Antimicrobial Agents and Chemotherapy, 2023).

In data set [1] the target is T1, C. parvum calcium dependent protein kinase 1 (CpCDPK1) (Cryptosporidium parvum, UniProt A3FQ16).
T1 sequence (A3FQ16 1-538): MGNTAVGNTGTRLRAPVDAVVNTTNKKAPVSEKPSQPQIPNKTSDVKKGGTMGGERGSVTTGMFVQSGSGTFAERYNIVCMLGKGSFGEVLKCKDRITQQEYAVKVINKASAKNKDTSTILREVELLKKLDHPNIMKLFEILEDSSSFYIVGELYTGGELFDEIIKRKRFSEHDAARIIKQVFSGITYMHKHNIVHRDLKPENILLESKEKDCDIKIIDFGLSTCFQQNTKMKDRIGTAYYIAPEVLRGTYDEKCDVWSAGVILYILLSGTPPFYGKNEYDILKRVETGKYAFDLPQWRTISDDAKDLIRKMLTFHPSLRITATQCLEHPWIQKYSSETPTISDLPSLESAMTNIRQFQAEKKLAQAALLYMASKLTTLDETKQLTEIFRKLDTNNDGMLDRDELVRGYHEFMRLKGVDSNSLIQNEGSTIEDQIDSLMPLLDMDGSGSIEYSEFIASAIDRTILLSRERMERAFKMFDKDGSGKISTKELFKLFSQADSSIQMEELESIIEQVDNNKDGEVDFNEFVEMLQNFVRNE
Put plainly: In vitro inhibition of CpCDPK1. The class given is biochemical. From the text:
(§1) Methods for synthesis of BKIs ([17], [23]), efficacy against Nluc expressing C. parvum in infected adult IFN-γ KO mice ([6], [9]), in vivo mouse GI tract tissue exposure by LC/MS-MS analysis ([18], [28]), PK analysis of mouse plasma and brain tissue BKI concentrations by LC/MS-MS analysis ([29]), in vivo rat and dog cardiotoxicity screen ([30]), efficacy against IOWA-II strain C. parvum in infected neonatal calves ([13]), efficacy against C. hominis in infected piglets ([12]), in vitro inhibition of C. parvum CDPK1 (CpCDPK1) and human tyrosine kinase SRC (HsSRC) activity ([31]), in vitro inhibition of hERG ([32]), Nluc expressing C. parvum in vitro growth inhibition in infected HCT-8 cells ([6]), in vitro cytotoxicity in CRL-8155 and HepG2 cells ([29]), and mouse locomotor activity box ([33], [34]) have all been previously described. Analytes were measured by LC/MS-MS on an Acquity ultra performance liquid chromatography (UPLC) system in tandem with a Xevo TQ-S mass spectrometer (Waters, Milford, MA, USA).

Data set [2] concerns the target human tyrosine kinase SRC (HsSRC) (Homo sapiens, UniProt P12931). Nature of the data set: In vitro inhibition of HsSRC. Particulars: read-out: HsSR IC50. The class given is biochemical.
Source text: as §1

Another data set in a line: Aqueous solubility. The format is physicochemical. The text has this: TABLE 1 In vitro properties of bumped kinase inhibitors^a | column: Solubility at pH 2 (μM); Solubility at pH 6.5 (μM)
The nature of data set [3]: In vitro cytotoxicity in HepG2 cells. The format is cell-based. Conditions: human.
Source text: as §1

For data set [4], the system named is Nluc expressing C. parvum. Put plainly: Nluc expressing C. parvum in vitro growth inhibition in infected HCT-8 cells. The format is cell-based. Conditions: Cryptosporidium parvum.
Source text: as §1

Data set [5] is described as follows: In vitro cytotoxicity in CRL-8155 cells. The class given is cell-based. Particulars: human.
Source text: as §1

The target in the next data set is hERG (Homo sapiens, UniProt Q12809). Particulars: cited from earlier work.
Sequence of hERG (Q12809 whole entry): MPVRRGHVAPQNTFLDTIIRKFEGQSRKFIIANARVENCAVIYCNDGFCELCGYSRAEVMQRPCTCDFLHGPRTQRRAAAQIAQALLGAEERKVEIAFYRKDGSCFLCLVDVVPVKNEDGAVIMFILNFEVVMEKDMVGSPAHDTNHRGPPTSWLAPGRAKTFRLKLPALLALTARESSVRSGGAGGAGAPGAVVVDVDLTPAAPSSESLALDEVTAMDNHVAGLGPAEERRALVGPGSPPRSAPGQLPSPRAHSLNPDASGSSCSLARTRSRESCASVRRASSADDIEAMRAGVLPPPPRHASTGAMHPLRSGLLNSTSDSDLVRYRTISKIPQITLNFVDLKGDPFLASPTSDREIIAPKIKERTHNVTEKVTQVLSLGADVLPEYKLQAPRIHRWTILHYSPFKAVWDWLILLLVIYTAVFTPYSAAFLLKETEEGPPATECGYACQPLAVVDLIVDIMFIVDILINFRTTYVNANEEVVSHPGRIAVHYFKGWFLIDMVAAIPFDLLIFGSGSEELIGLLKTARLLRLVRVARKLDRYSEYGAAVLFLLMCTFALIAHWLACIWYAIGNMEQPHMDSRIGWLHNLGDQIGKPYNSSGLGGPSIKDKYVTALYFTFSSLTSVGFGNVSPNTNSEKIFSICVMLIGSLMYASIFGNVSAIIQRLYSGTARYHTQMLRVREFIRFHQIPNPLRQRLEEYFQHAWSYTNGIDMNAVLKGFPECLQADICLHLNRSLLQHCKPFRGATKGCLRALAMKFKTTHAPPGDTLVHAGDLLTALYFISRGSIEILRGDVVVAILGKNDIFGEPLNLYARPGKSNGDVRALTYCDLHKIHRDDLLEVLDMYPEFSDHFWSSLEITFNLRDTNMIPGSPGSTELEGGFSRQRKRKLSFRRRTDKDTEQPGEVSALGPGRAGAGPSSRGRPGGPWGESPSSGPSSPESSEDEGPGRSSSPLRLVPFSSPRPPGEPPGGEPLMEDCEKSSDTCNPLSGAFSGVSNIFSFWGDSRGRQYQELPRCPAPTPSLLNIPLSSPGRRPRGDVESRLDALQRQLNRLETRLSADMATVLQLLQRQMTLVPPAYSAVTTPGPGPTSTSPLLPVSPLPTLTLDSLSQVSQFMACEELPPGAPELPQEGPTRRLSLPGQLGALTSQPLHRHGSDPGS
For data set [6] the following is noted: rat, in vivo; cited from earlier work.
Data set [7] can be described thus: Cardiovascular testing in anesthetized dogs. The format is in vivo, dog. Particulars: dogs (data not shown).
Source text: as §1

Another data set has as its system Cryptosporidium. On the set-up: method as in PMID 12423984, PMID 11398117, PMID 26568906. Particulars: malnourished children (subtracting placebo efficacy); cited from earlier work.

The structures appear in SMILES notation. ≈ marks a conversion by molar mass, not a printed value. Where two headings read alike, the source gives them in different places. A value given as a limit tells only on which side of the number the result lay.

Sequence of human tyrosine kinase SRC (HsSRC) (P12931 whole entry): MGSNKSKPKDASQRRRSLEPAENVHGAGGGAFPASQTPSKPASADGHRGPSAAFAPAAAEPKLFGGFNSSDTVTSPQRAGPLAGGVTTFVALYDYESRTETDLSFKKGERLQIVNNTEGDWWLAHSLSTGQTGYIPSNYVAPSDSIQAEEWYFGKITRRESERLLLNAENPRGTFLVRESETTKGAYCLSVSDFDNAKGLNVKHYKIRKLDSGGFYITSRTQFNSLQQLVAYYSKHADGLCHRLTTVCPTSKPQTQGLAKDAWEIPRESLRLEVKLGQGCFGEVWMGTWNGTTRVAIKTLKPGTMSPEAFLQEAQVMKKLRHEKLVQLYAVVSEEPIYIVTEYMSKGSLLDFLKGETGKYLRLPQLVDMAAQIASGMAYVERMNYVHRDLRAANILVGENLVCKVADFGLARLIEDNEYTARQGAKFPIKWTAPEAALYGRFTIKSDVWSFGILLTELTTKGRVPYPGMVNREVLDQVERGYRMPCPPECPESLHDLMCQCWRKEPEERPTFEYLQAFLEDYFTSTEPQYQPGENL

On to `CC(C)(CCO)n1nc(-c2ccc3cc(O)ccc3c2)c(C(N)=O)c1N` [1770-M5], for which the IC50 in [1] was determined as 0.018 µM; in data set [2], 5.4 µM. The solubility was 89 µM (≈ 31.5 µg/mL) in “Aqueous solubility” (aqueous medium at pH 2, pH 2, simulated gastric fluid, read-out: Solubility at pH 2) and > 100 µM in the data set “Aqueous solubility” (aqueous medium at pH 6.5, pH 6.5, aqueous buffer, read-out: Solubility at pH 6.5). Also, the CC50 in [3] and in data set [5] was > 80 µM in each case. In data set [4], this compound gave an EC50 of 2.1 µM.
Consider `CCOc1ccc2cc(-c3nn(CC4CCN(C)CC4)c4ncnc(N)c34)ccc2c1` [BKI-1294], for which the “inhibition of hERG in vitro” value on hERG is “submicromolar range”.
Turning to `CCOc1ccc2cc(-c3nn(CC4CCN(C)CC4)c4ncnc(N)c34)ccc2n1` [BKI-1369], the cardiotoxicity in vivo result in [6] and in [7] was “Cardiotoxicity was additionally seen” throughout. For the same compound, the “cardiotoxicity in the in vitro hERG assay” value on hERG is “Cardiotoxicity was additionally seen”.
For the compound `CC(=O)Oc1ccccc1C(=O)Nc1ncc([N+](=O)[O-])s1` [Nitazoxanide], in the data set on Cryptosporidium, the efficacy result is on record as “about 30%”.

The term IC50 denotes the concentration at which inhibition is half-maximal. What is called solubility is how much of the substance goes into solution per volume. The CC50 is the concentration that lowers cell viability or growth by half. The low end stands for greater toxicity to the cells, the high end for lower toxicity to the cells. A word on the EC50: it is the concentration that produces a half-maximal response. A lower EC50 goes with a more potent agent.
